{
  "source": "paper PMC4490784",
  "about": "“Compensatory induction of MYC expression by sustained CDK9 inhibition via a BRD4-dependent mechanism” (eLife, 2015)",
  "key": {"[1]": {"tested_on": "Ser2-phosphorylated Pol II in HeLa cells", "assay": "Immunoblotting of global pSer2 (Pol II CTD) in HeLa cell lysates", "type": "cell-based, human", "conditions": "8 hr", "protocol": "Inhibition of phosphorylation of both Pol II CTD and SPT5 is expected to block transcriptional elongation, which will effectively decrease the production of labile proteins from short-lived transcripts.\n(§1) Figure 3. Induction of MYC mRNA production in response to sustained inhibition of CDK9 by i-CDK9 and the requirement of MYC's natural genomic structure in this process. (A) The indicated tumor cell lines were treated with i-CDK9 (0.5 μM) for 2–16 hr and the MYC mRNA levels, which were divided by those in the DMSO-treated cells and averaged from three independent replicates of DNA microarray analysis, were shown as log2 values. (B) HeLa cells were treated with the indicated concentrations of i-CDK9 for 8 hr and the various proteins in the total cell lysates were detected by immunoblotting as indicated. Quantifications of the levels of MYC protein and Ser2-phosphoryalted Pol II (pSer2) in the lysates were shown above and below the immunoblots, respectively. […] The levels of the indicated proteins were examined by immunoblotting. (G) A HeLa-based cell line containing the stably transfected, doxycycline (Dox)-inducible MYC-F-expressing plasmid driven by the CMV promoter was pretreated with (+) or without (−) Dox prior to incubation with i-CDK9 or DMSO. MYC and MYC-F expressed from the endogenous MYC locus and the transfected plasmid, respectively, were detected by immunoblotting. DOI: http://dx.doi.org/10.7554/eLife.06535.007 Figure 3—figure supplement 1. Biphasic response of MYC mRNA production throughout the course of CDK9 inhibition by i-CDK9. DOI: http://dx.doi.org/10.7554/eLife.06535.008 [drawing 2] Figure 3—Figure supplement 2. […] DOI: http://dx.doi.org/10.7554/eLife.06535.009 [drawing 3] TEXT PRINTED IN THE PICTURE: (B) i-CDK9: Fold increase in MYC protein: 1.0 (i-CDK9 (μM): 0); Fold increase in MYC protein: 1.2 (i-CDK9 (μM): 0.01); Fold increase in MYC protein: 1.7 (i-CDK9 (μM): 0.03); Fold increase in MYC protein: 3.6 (i-CDK9 (μM): 0.1); Fold increase in MYC protein: 5.2 (i-CDK9 (μM): 0.3); Fold increase in MYC protein: 5.5 (i-CDK9 (μM): 1.0) | (C) i-CDK9: Fold increase in MYC protein: 1.0 (0.3 μM i-CDK9 (h): 0); Fold increase in MYC protein: 0.9 (0.3 μM i-CDK9 (h): 1); Fold increase in MYC protein: 1.1 (0.3 μM i-CDK9 (h): 2); Fold increase in MYC protein: 1.2 (0.3 μM i-CDK9 (h): 4); Fold increase in MYC protein: 3.3 (0.3 μM i-CDK9 (h): 8)\nFirst, the induction of MYC protein level was confirmed in HeLa cells treated with i-CDK9. […] It took 1.0 µM i-CDK9 to cause up to 85% reduction in pSer2. In a separate time-course analysis, the 8-hr incubation with i-CDK9 (0.3 μM) induced the MYC level by 3.3-fold, whereas the same condition reduced the pSer2 level by only 40% (Figure 3C). […]"}, "CDK9": {"molecular_target": "CDK9 (Homo sapiens, UniProt P50750)", "sequence (P50750 whole entry)": "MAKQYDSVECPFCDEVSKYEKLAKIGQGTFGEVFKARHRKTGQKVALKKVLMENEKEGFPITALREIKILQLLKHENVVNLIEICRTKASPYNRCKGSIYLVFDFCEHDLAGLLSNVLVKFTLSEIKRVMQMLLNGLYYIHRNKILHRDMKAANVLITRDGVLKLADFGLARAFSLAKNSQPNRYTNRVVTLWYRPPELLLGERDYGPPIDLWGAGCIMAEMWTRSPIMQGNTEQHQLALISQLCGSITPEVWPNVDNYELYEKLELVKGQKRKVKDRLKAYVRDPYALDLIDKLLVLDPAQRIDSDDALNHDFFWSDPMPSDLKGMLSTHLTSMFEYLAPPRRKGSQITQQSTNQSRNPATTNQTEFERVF", "sequence (O60563 whole entry partner)": "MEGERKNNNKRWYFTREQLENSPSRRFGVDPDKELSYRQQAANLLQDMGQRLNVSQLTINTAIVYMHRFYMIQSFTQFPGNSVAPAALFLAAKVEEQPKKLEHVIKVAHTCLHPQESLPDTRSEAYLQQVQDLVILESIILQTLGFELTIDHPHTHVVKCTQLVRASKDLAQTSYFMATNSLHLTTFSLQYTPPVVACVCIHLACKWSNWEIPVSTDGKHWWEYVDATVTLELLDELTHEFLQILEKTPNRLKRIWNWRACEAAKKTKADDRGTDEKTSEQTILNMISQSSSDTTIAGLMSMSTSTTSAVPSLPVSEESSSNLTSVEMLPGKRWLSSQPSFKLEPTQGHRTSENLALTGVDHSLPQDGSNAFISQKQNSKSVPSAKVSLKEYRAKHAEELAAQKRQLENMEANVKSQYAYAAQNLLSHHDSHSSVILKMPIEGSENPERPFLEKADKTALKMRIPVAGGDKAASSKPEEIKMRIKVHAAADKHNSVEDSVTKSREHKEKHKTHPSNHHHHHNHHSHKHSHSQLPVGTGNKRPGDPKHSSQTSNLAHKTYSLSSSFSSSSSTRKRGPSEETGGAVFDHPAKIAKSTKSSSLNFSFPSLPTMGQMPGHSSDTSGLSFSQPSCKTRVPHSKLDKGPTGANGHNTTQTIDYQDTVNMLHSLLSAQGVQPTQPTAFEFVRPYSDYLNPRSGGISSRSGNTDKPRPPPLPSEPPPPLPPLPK", "assay": "biochemical binding or enzymatic assay", "design": "purchased Invitrogen", "protocol": "(§2) Finally, the selectivity profile of i-CDK9 toward other non-CDK kinases was also assessed using the KINOMEscan platform. […] Except for CLK4, for which no suitable assay was available, the rest of the kinases plus a selected group of others were re-examined for the concentration-dependent effect of i-CDK9 in either functional kinase assays or binding assays. […] Indeed, it has recently been reported that DYRK1A acts as a Pol II CTD Kinase at its target gene promoters ([Di Vona et al., 2015])."}, "[2]": {"tested_on": "MYC protein in HeLa cells", "assay": "Immunoblotting of MYC protein in HeLa cell lysates", "type": "cell-based, human", "protocol": "as §1\nFirst, the induction of MYC protein level was confirmed in HeLa cells treated with i-CDK9. […] It took 1.0 µM i-CDK9 to cause up to 85% reduction in pSer2. In a separate time-course analysis, the 8-hr incubation with i-CDK9 (0.3 μM) induced the MYC level by 3.3-fold, whereas the same condition reduced the pSer2 level by only 40% (Figure 3C). Thus, MYC expression was highly responsive to i-CDK9 treatment and occurred at a time point earlier and drug concentration lower than those required to achieve a significant suppression of Ser2 phosphorylation on the Pol II CTD."}, "CLK1": {"molecular_target": "T1, CLK1 (Homo sapiens, UniProt P49759)", "T1 construct": "purchased DiscoveRx KINOMEscan", "T1 sequence (P49759 whole entry)": "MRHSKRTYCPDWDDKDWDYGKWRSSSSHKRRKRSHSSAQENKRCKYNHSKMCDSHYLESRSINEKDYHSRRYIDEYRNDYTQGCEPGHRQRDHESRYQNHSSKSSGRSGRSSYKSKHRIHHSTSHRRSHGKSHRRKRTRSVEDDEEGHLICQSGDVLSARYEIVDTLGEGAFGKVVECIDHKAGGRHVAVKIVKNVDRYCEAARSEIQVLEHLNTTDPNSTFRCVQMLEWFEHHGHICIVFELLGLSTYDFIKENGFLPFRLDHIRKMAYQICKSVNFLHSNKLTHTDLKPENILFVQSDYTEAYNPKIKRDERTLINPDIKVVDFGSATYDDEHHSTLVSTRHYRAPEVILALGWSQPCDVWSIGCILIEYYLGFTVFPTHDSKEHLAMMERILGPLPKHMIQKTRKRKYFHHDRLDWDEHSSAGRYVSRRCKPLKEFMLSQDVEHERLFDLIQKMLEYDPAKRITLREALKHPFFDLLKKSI", "assay": "biochemical binding or enzymatic assay", "conditions": "Invitrogen", "protocol": "as §2"}, "PKN1": {"molecular_target": "T2, PKN1 (Homo sapiens, UniProt Q16512)", "T2 construct": "purchased DiscoveRx KINOMEscan", "T2 sequence (Q16512 whole entry)": "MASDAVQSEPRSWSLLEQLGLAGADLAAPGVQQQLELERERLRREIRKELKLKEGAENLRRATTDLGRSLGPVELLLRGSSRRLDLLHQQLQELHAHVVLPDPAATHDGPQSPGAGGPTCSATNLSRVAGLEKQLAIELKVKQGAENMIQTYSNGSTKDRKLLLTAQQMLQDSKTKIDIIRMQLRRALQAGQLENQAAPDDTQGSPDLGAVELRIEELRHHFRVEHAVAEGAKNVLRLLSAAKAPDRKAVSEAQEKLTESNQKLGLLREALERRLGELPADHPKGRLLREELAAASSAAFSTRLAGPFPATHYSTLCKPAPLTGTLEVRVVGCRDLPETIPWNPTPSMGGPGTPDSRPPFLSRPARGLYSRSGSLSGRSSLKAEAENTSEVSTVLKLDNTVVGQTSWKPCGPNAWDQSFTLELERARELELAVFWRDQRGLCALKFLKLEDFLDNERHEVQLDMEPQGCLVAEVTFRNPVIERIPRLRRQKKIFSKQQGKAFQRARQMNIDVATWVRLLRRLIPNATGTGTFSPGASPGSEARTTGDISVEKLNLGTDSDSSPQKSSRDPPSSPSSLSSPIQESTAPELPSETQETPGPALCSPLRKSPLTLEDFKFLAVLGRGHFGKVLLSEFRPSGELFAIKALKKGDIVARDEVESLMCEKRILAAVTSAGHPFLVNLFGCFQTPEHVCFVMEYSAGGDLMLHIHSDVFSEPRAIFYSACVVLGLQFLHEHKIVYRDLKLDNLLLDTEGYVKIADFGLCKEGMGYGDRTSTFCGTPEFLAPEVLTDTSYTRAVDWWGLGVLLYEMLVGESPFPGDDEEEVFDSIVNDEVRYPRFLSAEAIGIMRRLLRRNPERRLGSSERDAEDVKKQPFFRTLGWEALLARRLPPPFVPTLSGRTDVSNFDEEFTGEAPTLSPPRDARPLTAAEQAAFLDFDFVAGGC", "assay": "biochemical binding or enzymatic assay", "conditions": "Novartis", "protocol": "as §2"}, "IRAK4": {"molecular_target": "IRAK4 (Homo sapiens, UniProt Q9NWZ3)", "sequence (Q9NWZ3 whole entry)": "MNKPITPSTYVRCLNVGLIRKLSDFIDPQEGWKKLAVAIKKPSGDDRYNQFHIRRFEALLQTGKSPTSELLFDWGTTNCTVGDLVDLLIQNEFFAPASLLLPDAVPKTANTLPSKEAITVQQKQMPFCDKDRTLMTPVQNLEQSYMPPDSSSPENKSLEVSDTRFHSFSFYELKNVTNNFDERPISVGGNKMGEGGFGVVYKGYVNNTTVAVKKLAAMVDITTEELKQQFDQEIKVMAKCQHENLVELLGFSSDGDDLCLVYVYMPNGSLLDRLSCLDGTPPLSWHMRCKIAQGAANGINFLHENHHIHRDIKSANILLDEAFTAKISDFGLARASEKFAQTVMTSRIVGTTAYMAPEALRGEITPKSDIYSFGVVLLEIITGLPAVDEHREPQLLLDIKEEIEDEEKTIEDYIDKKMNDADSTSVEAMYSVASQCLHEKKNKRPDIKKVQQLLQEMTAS", "assay": "biochemical binding or enzymatic assay", "conditions": "Novartis", "protocol": "as §2"}, "PDPK1": {"molecular_target": "T3, PDPK1 (Homo sapiens, UniProt O15530)", "T3 construct": "purchased DiscoveRx KINOMEscan", "T3 sequence (O15530 1-556)": "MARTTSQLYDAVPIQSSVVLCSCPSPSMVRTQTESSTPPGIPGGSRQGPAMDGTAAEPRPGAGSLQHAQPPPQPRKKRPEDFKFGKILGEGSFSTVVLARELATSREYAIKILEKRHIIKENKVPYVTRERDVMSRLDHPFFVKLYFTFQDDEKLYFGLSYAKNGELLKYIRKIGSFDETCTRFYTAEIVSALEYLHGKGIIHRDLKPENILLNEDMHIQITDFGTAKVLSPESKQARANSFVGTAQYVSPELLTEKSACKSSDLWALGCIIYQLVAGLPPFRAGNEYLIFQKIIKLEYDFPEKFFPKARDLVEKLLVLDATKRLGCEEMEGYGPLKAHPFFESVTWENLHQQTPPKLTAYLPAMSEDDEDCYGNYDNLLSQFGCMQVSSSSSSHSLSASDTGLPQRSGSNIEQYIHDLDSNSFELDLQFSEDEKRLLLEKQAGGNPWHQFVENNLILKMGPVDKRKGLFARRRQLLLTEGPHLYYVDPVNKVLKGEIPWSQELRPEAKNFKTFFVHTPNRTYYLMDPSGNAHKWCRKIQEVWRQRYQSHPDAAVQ", "assay": "biochemical binding or enzymatic assay", "conditions": "Novartis", "protocol": "as §2"}, "MKNK1": {"molecular_target": "T4, MKNK1 (Homo sapiens, UniProt Q9BUB5)", "T4 construct": "purchased DiscoveRx KINOMEscan", "T4 sequence (Q9BUB5 whole entry)": "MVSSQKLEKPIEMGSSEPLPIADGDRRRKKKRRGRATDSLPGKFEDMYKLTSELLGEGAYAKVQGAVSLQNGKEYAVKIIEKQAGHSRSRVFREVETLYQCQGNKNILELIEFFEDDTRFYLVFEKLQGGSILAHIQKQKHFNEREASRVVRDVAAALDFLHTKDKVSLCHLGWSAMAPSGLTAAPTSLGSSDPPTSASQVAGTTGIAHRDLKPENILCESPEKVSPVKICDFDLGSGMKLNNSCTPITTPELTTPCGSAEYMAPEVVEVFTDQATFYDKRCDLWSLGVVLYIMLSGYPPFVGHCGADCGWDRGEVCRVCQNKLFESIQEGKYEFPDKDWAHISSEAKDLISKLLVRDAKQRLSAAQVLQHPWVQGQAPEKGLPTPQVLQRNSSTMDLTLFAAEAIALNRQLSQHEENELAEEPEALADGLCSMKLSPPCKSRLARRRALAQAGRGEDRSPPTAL", "assay": "biochemical binding or enzymatic assay", "conditions": "Novartis", "protocol": "as §2"}, "CSNK1G3": {"molecular_target": "T5, CSNK1G3 (Homo sapiens, UniProt Q9Y6M4)", "T5 construct": "purchased DiscoveRx KINOMEscan", "T5 sequence (Q9Y6M4 whole entry)": "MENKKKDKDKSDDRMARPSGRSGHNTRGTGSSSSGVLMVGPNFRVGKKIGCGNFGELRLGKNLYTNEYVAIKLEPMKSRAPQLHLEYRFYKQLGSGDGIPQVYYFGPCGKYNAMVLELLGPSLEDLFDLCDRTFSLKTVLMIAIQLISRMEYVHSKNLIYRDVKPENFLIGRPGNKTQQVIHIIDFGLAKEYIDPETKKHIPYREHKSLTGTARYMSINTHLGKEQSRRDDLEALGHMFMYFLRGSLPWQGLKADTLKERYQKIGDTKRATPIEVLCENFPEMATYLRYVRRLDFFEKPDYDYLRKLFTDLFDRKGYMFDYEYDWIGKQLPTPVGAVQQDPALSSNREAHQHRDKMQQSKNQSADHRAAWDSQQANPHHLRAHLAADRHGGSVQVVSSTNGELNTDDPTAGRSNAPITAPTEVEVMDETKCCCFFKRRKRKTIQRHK", "assay": "biochemical binding or enzymatic assay", "conditions": "Novartis", "protocol": "as §2"}, "MKNK2": {"molecular_target": "T6, MKNK2 (Homo sapiens, UniProt Q9HBH9)", "T6 construct": "purchased DiscoveRx KINOMEscan", "T6 sequence (Q9HBH9 whole entry)": "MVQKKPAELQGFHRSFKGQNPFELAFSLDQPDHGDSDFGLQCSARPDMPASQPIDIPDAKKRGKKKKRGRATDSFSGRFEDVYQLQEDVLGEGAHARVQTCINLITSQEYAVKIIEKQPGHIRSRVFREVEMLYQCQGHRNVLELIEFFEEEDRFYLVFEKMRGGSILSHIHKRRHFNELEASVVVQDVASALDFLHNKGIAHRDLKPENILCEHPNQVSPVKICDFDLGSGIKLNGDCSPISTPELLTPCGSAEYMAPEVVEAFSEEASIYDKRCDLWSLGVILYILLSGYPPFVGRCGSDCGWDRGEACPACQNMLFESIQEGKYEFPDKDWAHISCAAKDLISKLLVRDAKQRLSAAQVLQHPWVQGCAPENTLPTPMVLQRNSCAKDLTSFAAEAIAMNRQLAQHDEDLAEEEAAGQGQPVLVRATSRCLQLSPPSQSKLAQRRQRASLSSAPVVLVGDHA", "assay": "biochemical binding or enzymatic assay", "conditions": "Novartis", "protocol": "as §2"}},
  "data": [
    {"smiles": "N[C@H]1CC[C@H](Nc2cc(-c3cccc(NCc4cccc(F)c4)n3)c(Cl)cn2)CC1", "note": "[i-CDK9, N2′-(trans-4-aminocyclohexyl)-5′-chloro-N6-(3-fluorobenzyl)-2,4′-bipyridine-2′,6-diamine]", "values": [
      {"measurement": "decrease of global pSer2 level", "setting": "[1]; 0.1 μM", "result": 23, "unit": "%"},
      {"measurement": "reduction in global pSer2", "setting": "[1]; 0.3 μM, Figure 4-figure supplement 1", "result": "about 50%"},
      {"measurement": "reduction in pSer2", "setting": "[1]; 1.0 μM", "result": "up to 85%"},
      {"measurement": "pSer2 in the Pol II CTD and pThr775 in SPT5", "setting": "[1]; dose-dependent", "result": "markedly reduced"},
      {"measurement": "IC50", "setting": "CDK9", "result": "< 0.0004", "unit": "µM"},
      {"measurement": "fold difference between CDK9 and the next two best targets DYRK1A and DYRK1B", "setting": "CDK9; selectivity", "result": "more than 100 fold"},
      {"measurement": "Fold increase in MYC protein", "setting": "[2]; 0.01 μM, 8 hr", "result": 1.2, "unit": "fold"},
      {"measurement": "Fold increase in MYC protein", "setting": "[2]; 0.03 μM, 8 hr", "result": 1.7, "unit": "fold"},
      {"measurement": "Fold increase in MYC protein", "setting": "[2]; 0.1 μM, 8 hr", "result": 3.6, "unit": "fold"},
      {"measurement": "Fold increase in MYC protein", "setting": "[2]; 0.3 μM, 1 h (time course)", "result": 0.9, "unit": "fold"},
      {"measurement": "Fold increase in MYC protein", "setting": "[2]; 0.3 μM, 2 h (time course)", "result": 1.1, "unit": "fold"},
      {"measurement": "Fold increase in MYC protein", "setting": "[2]; 0.3 μM, 4 h (time course)", "result": 1.2, "unit": "fold"},
      {"measurement": "Fold increase in MYC protein", "setting": "[2]; 0.3 μM, 8 h (time course)", "result": 3.3, "unit": "fold"},
      {"measurement": "Fold increase in MYC protein", "setting": "[2]; 0.3 μM, 8 hr (dose series)", "result": 5.2, "unit": "fold"},
      {"measurement": "Fold increase in MYC protein", "setting": "[2]; 1.0 μM, 8 hr", "result": 5.5, "unit": "fold"},
      {"measurement": "MYC induction", "setting": "[2]; 2 μM added at time zero", "result": "No MYC induction"},
      {"measurement": "IC50", "setting": "CLK1", "result": 0.525, "unit": "µM"},
      {"measurement": "IC50", "setting": "PKN1", "result": "> 10", "unit": "µM"},
      {"measurement": "IC50", "setting": "IRAK4", "result": "> 10", "unit": "µM"},
      {"measurement": "IC50", "setting": "PDPK1", "result": "> 10", "unit": "µM"},
      {"measurement": "IC50", "setting": "MKNK1", "result": "> 10", "unit": "µM"},
      {"measurement": "IC50", "setting": "CSNK1G3", "result": "> 10", "unit": "µM"},
      {"measurement": "IC50", "setting": "MKNK2", "result": "> 10", "unit": "µM"}
    ]}
  ]
}
